# Test results as given in PubChem BioAssay (NCI).
#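 Values below derive from 48-hour exposures of cells grown in 96-well plates, with endpoints linearly interpolated between the two concentrations bracketing the appropriate inhibition level. GI50 marks 50% less growth. The concentration for full growth arrest is given as TGI.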
# Experiments:
# Test in all cases: growth of human tumour cells (NCI), 48 h
# [1] = system: ACHN renal
# [2] = system: COLO 205 colon
# [3] = system: DMS 114 small cell lung
# [4] = system: HOP-62 NSCLC
# [5] = system: KM20L2 colon
# [6] = system: LXFL 529 NSCLC
# [7] = system: M19-MEL melanoma
# [8] = system: NCI-H460 lung
# [9] = system: UACC-62 melanoma
# [10] = system: DLD-1 colon
# [11] = system: HOP-18 NSCLC
# [12] = system: DU-145 prostate
# [13] = system: PC-3 prostate
SMILES,TGI [1],TGI [2],TGI [3],TGI [4],TGI [5],TGI [6],TGI [7],TGI [8],TGI [9],TGI [10],TGI [11],TGI [12],TGI [13],GI50 [10],GI50 [4],GI50 [5]
Cc1ccc(S(=O)(=O)c2ccc(C)cc2[N+](=O)[O-])c([N+](=O)[O-])c1,> 100 µM,> 100 µM,> 100 µM,> 100 µM,> 100 µM,> 100 µM,> 100 µM,> 100 µM,> 100 µM,–,–,–,–,–,–,–
Cc1c(-c2coc(-c3ccc([N+](=O)[O-])cc3)n2)c(=O)n(-c2ccccc2)n1C,> 100 µM,> 100 µM,> 100 µM,> 100 µM,> 100 µM,> 100 µM,> 100 µM,> 100 µM,> 100 µM,> 100 µM,–,–,–,–,–,–
O=C(O)C12C3CCC(C3)C1(C(=O)O)C1CCC2C1 (stereo not drawn),> 100 µM,> 100 µM,> 100 µM,> 100 µM,> 100 µM,> 100 µM,> 100 µM,> 100 µM,> 100 µM,64.1 µM,> 100 µM,–,–,–,–,–
CN1CCS(=O)(=O)NC(Cc2ccccc2)C(=O)N2CCCC2C1=O (stereo not drawn),> 100 µM,> 100 µM,> 100 µM,> 100 µM,> 100 µM,> 100 µM,> 100 µM,–,> 100 µM,> 100 µM,> 100 µM,–,–,–,–,–
O=c1[nH]c(=O)n([C@H]2C[C@@H](CO)[C@@H](O)C2)cc1I,> 100 µM,> 100 µM,> 100 µM,> 100 µM,> 100 µM,> 100 µM,> 100 µM,> 100 µM,> 100 µM,> 100 µM,> 100 µM,–,–,–,–,–
COc1cc2ccnc(C#N)c2cc1OCc1ccccc1,> 100 µM,–,–,> 100 µM,> 100 µM,> 100 µM,–,> 100 µM,–,> 100 µM,> 100 µM,–,–,–,–,–
O=C1CCC(=O)c2ccccc2N1,> 100 µM,> 100 µM,> 100 µM,> 100 µM,> 100 µM,> 100 µM,> 100 µM,> 100 µM,–,> 100 µM,> 100 µM,–,–,–,–,–
CN(C)CC1(Cc2ccccc2)CC/C(=C\c2ccccc2)C1=O (stereo not drawn),> 100 µM,89.6 µM,80.1 µM,> 100 µM,35 µM,> 100 µM,64.6 µM,68.3 µM,> 100 µM,> 100 µM,> 100 µM,–,–,–,–,–
O=C1c2ccccc2C(=O)c2c1oc1cc(O)c(Cl)cc21,17 µM,3.27 µM,6.1 µM,21.7 µM,6.79 µM,> 46.3 µM,0.445 µM,9.89 µM,4.32 µM,19.5 µM,6.79 µM,13.5 µM,29.6 µM,–,–,–
N#Cc1ccc(C2OCC3CC=CCC3CO2)cc1 (stereo not drawn),> 100 µM,> 100 µM,> 100 µM,> 100 µM,> 100 µM,> 100 µM,> 100 µM,> 100 µM,> 100 µM,> 100 µM,> 100 µM,–,–,–,–,–
COc1ccccc1/C=C1\CCC(Cc2ccccc2)(CN(C)C)C1=O (stereo not drawn),> 100 µM,7.82 µM,> 36.2 µM,> 69 µM,2.34 µM,> 52.3 µM,> 58.9 µM,12.8 µM,> 26.1 µM,> 80.4 µM,> 100 µM,> 100 µM,–,–,–,–
c1ccc2cc(C3NCCc4[nH]cnc43)ccc2c1 (stereo not drawn),> 100 µM,62.5 µM,> 100 µM,> 100 µM,> 100 µM,> 100 µM,> 100 µM,> 100 µM,> 100 µM,> 100 µM,> 100 µM,–,–,–,–,–
Cc1ccc(NC(=O)c2cccc(OP(=O)(Nc3ccc(C)cc3)Nc3ccc(C)cc3)c2)cc1,20.6 µM,5.27 µM,–,> 100 µM,–,–,–,> 100 µM,> 100 µM,–,–,> 100 µM,> 100 µM,–,–,–
c1ccc2c(c1)nc1ccccn12,> 100 µM,> 100 µM,–,> 100 µM,–,–,–,> 100 µM,> 100 µM,–,–,> 100 µM,> 100 µM,–,–,–
CCOC(=O)/C(C1=NCCN1C)=C(\O)c1ccccc1,> 100 µM,> 100 µM,–,> 100 µM,> 100 µM,> 100 µM,> 100 µM,> 100 µM,> 100 µM,> 100 µM,> 100 µM,–,–,–,–,–
Cc1cc(NS(=O)(=O)c2ccc(NO)cc2)no1,> 100 µM,> 100 µM,–,> 100 µM,–,–,–,> 100 µM,> 100 µM,–,–,> 100 µM,> 100 µM,–,–,–
CC1(C)N=C(C(N)=O)c2ncn(Cc3ccccc3)c2N1,> 100 µM,> 100 µM,–,> 100 µM,–,–,–,> 100 µM,> 100 µM,–,–,> 100 µM,> 100 µM,–,–,–
COc1ccc(S(=O)(=O)N/N=C(\C)CN2C(=O)c3ccccc3C2=O)cc1OC,> 100 µM,> 100 µM,> 100 µM,> 100 µM,> 100 µM,> 100 µM,> 100 µM,> 100 µM,> 100 µM,> 100 µM,> 100 µM,–,–,–,–,–
CCC1(c2ccc(OC)c(OC)c2)CCN(S(=O)(=O)c2ccc(C)cc2)C1 (stereo not drawn),> 100 µM,> 100 µM,–,> 100 µM,–,–,–,> 100 µM,> 100 µM,–,–,> 100 µM,> 100 µM,–,–,–
Cc1cc2c(cc1Cl)SC(NNCCO)=NS2(=O)=O,> 100 µM,> 100 µM,–,> 100 µM,–,–,–,> 100 µM,> 100 µM,–,–,> 100 µM,> 100 µM,–,–,–

SMILES,TGI [1],TGI [2],TGI [3],TGI [4],TGI [5],TGI [6],TGI [7],TGI [8],TGI [9],TGI [10],TGI [11],TGI [12],TGI [13],GI50 [10],GI50 [4],GI50 [5]
COC(C)=NCCC1=CCCCC1,> 100 µM,> 100 µM,–,> 100 µM,–,–,–,> 100 µM,> 100 µM,–,–,> 100 µM,> 100 µM,–,–,–
CC1(C)CC(=O)c2c(-c3ccc(Cl)cc3)c(C#N)c(=S)n(C3OC(CO)C(O)C(O)C3O)c2C1 (stereo not drawn),> 100 µM,92.8 µM,–,> 100 µM,–,–,–,> 100 µM,41.6 µM,–,–,> 100 µM,52.1 µM,–,–,–
COc1nc(=O)[nH]c2c1C(c1ccc([N+](=O)[O-])cc1)c1c(OC)nc(=O)[nH]c1O2,> 100 µM,> 100 µM,–,> 100 µM,–,–,–,> 100 µM,> 100 µM,–,–,> 100 µM,> 100 µM,–,–,–
O=C(Nc1ccccc1)OCCN=c1c2ccccc2ccc2ccccc12,61.8 µM,51.4 µM,–,> 100 µM,–,–,–,59.1 µM,49.1 µM,–,–,> 100 µM,49.4 µM,–,–,–
CC(C)CCNC(=O)c1ccc(CNC(=O)/C=C/c2ccc3ccccc3c2)cc1,> 100 µM,> 100 µM,–,> 100 µM,–,–,–,> 100 µM,> 100 µM,–,–,> 100 µM,> 100 µM,–,–,–
C=C1N(C)c2ccc(S(=O)(=O)c3ccc4c(c3)C(C)(C)C(=C)N4C)cc2C1(C)C,> 100 µM,29.8 µM,–,> 100 µM,–,–,–,> 100 µM,> 100 µM,–,–,> 100 µM,> 100 µM,–,–,–
CCOC(=O)N1c2ccccc2N(C(=O)OCC)C1CC(=O)/C=C/c1ccccc1,15.7 µM,4.17 µM,–,17.6 µM,–,–,–,11.1 µM,10.2 µM,–,–,9.11 µM,19.8 µM,–,–,–
N#CCCC(C#N)(C#N)CCC#N,> 100 µM,> 100 µM,> 100 µM,> 100 µM,> 100 µM,> 100 µM,> 100 µM,> 100 µM,> 100 µM,–,–,–,–,–,–,–
COc1ccccc1N1CCN(S(=O)(=O)c2ccc(Cl)cc2)C1=N,> 100 µM,> 100 µM,–,> 100 µM,–,–,–,> 100 µM,> 100 µM,–,–,> 100 µM,> 100 µM,–,–,–
O=c1cccccc1[O-].O=c1cccccc1[O-].O=c1cccccc1[O-].[Nd+3],> 100 µM,–,–,95.3 µM,> 100 µM,–,–,> 100 µM,88 µM,> 100 µM,–,–,–,36.4 µM,32 µM,31.7 µM
CC/C(Cl)=N\OC(=O)Nc1ccc(F)c(Cl)c1,26.7 µM,8.16 µM,–,34.3 µM,–,–,–,34.3 µM,46.3 µM,–,–,34.2 µM,29.6 µM,–,–,–
COP12(OC)NC(=O)OC1(C(F)(F)F)c1ccccc1O2 (stereo not drawn),> 100 µM,–,> 100 µM,–,–,> 100 µM,> 100 µM,> 100 µM,> 100 µM,> 100 µM,> 100 µM,–,–,–,–,–
Cc1c2c(n3c(nc4ccccc43)c1C#N)N(c1ccc(F)cc1)CC2,> 100 µM,> 100 µM,–,> 100 µM,–,–,–,> 100 µM,> 100 µM,–,–,> 100 µM,> 100 µM,–,–,–
O=c1ccn(C/C=C/c2ccccc2)c(=S)n1C/C=C/c1ccccc1,> 100 µM,> 100 µM,–,> 100 µM,–,–,–,> 100 µM,> 100 µM,–,–,> 100 µM,> 100 µM,–,–,–
Cc1n[nH]c(=O)n1/N=C/c1ccco1,> 100 µM,> 100 µM,–,> 100 µM,–,–,–,> 100 µM,> 100 µM,–,–,> 100 µM,> 100 µM,–,–,–
Cc1ccccc1N(CCC#N)C1=NN(C(=O)CC(=O)Nc2ccc(Cl)cc2)C(c2ccccc2)C1 (stereo not drawn),> 100 µM,> 100 µM,> 100 µM,> 100 µM,> 100 µM,> 100 µM,> 100 µM,> 100 µM,> 100 µM,> 100 µM,> 100 µM,–,–,–,–,–
Cc1nc(C)c(N2CCN(Cc3ccccc3)CC2)c(=O)[nH]1,> 100 µM,> 100 µM,–,> 100 µM,–,–,–,> 100 µM,> 100 µM,–,–,> 100 µM,> 100 µM,–,–,–
COc1cc(C2C(C(=O)NCc3ccccc3)=C(C)NC(C)=C2C(=O)NCc2ccccc2)ccc1O,> 100 µM,–,> 100 µM,–,> 100 µM,> 100 µM,> 100 µM,> 100 µM,> 100 µM,–,–,–,–,–,–,–
CCOC(=O)c1ccc(N=C2Sc3nc4ccccc4n3C2=Nc2ccc(C(=O)OCC)cc2)cc1,57.2 µM,> 100 µM,–,46.5 µM,–,–,–,69.6 µM,54.4 µM,–,–,> 100 µM,> 100 µM,–,–,–
CCCCCN1C(=O)C(Cc2ccccc2)N=C(c2ccc(O)cc2)c2cc(Cl)ccc21 (stereo not drawn),25.9 µM,10.1 µM,–,52.8 µM,–,–,–,24.3 µM,25 µM,–,–,30.9 µM,27.3 µM,–,–,–
